# According to US7612071B2, “Compositions and methods employing aminopterin” (Syntrix Biosystems, Inc., priority 2004, dated 2009):
# Where two headings read alike, the source gives them in different places.
# Columns and labels:
# [1] = system: standard and high-risk ALL; conditions: for Coefficient of variation of toxicity of aminopterin as percent of that of methotrexate: both oral; for Therapeutic Component: Percentage effective (no evidence of a disease manifestation): greater than 12 months treatment, AMT 4 mg/m^2/wk high risk ALL (n=20), MTX 100 mg/m^2/wk standard risk ALL (n=20)
# [2] = prior art; cited from earlier work
# [3] = target: T1, partially purified chicken liver DHFR (Gallus gallus, UniProt P00378); assay: Radioligand DHFR binding assay; conditions: aminopterin compared with methotrexate
# T1 sequence (P00378 1-189): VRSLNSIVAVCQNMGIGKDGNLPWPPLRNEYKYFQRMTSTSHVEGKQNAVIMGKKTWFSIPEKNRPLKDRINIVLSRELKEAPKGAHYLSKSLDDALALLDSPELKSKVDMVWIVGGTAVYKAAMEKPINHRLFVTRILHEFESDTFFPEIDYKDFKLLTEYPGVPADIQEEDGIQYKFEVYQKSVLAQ
# [4] = Mean intrapatient coefficient of variation of oral bioavailability; type: in vivo; conditions: human, plasma, 2 mg/m2; AMT 2 mg/m^2 PO, n=5
# Source text: The term “intrapatient coefficient of variation of oral bioavailability” as used herein refers to the coefficient of variation of oral bioavailability of two or more antifolate doses given to the same patient. Specifically, it is the standard deviation of oral bioavailability of the two or more antifolate doses in the same patient divided by the intrapatient oral bioavailability, expressed as a percent.
# The term “mean intrapatient coefficient of variation of oral bioavailability” as used herein refers to the average intrapatient coefficient of variation of oral bioavailability for two or more patients.
# The intrapatient oral bioavailability and standard deviation of the oral bioavailability were determined among the consecutive doses in a given patient, and the intrapatient coefficient of variation of oral bioavailability calculated for each patient by dividing the standard deviation by the intrapatient oral bioavailability.
# [5] = mice, 4 weekly ip doses (aminopterin 0.03 mg/kg, methotrexate 0.3 mg/kg)
# [6] = system: T-lineage acute lymphoblastic leukemia (ALL); conditions: for Therapeutic Index / Toxicity Component: Antifolate dose with same toxicity as MTX at 100 mg/m^2/wk: T-lineage ALL; for Therapeutic Component: Antifolate dose / Therapeutic Component: Percentage effective (complete remission or stable disease): peripheral blasts and bone marrow infiltrates in T-lineage ALL, n=7; for Therapeutic Component: Percentage effective (complete remission or stable disease): AMT 4 mg/m^2/wk, MTX >5000 mg/m^2/wk in the same patients
# Description: Specifically, a clinical trial was performed in human adult and pediatric patients having T-lineage acute lymphoblastic leukemia (ALL) that was refractory to therapy or that had relapsed (see Table IV). The disease manifestations that were monitored were peripheral blasts and bone marrow infiltrates. The toxicity manifestations that were monitored were mucositis, neutropenia, thrombocytopenia and myelosuppression.
# [7] = Storage of aqueous compositions; type: physicochemical; conditions: parenteral, oral liquid or other aqueous compositions
# Source text: Because of their ease of administration, tablets and capsules represent the most advantageous oral dosage form in adults, in which case solid pharmaceutical carriers are employed. If desired, tablets may be coated by standard aqueous or nonaqueous techniques. The parenteral dosage form can consist of a sterile solution of the active ingredient, either in its free or salt form, in physiological buffer or sterile water. In addition, parenteral solutions can contain preservatives such as benzalkonium chloride, methyl- or propyl-paraben and chlorobutanol. Suitable pharmaceutical carriers are described in Remington's Pharmaceutical Sciences, a standard reference text in this field. […] Accordingly, such aqueous compositions are best stored desiccated and hydrated within several hours to several days prior to patient administration.
# [8] = AMT 2 mg/m^2, adult patients, n=13, prior art; cited from earlier work
# [9] = Potency relative to methotrexate; conditions: therapeutically effective amount for the same level of efficacy
# [10] = Interpatient coefficient of variation of oral bioavailability; type: in vivo; conditions: human, plasma, 2 mg/m2; AMT 2 mg/m^2 PO, pediatric and adult patients, n=27
# Description: The term “interpatient coefficient of variation of oral bioavailability” as used herein refers to the coefficient of variation of oral bioavailability in a population of at least two patients, wherein the oral bioavailability is determined at least once for each patient in the population. Specifically, it is the standard deviation of oral bioavailability in the population divided by the interpatient oral bioavailability, expressed as a percent. […] It is sufficient to use a representative number of patients from a particular patient population to establish the interpatient coefficient of variation of oral bioavailability for that population, where at least 5 patients will be required in order to establish the interpatient coefficient of variation of oral bioavailability of a population.
# The standard deviation of oral bioavailability and interpatient oral bioavailability were determined among 27 matched patients.
# Pharmacol. 10(1):36, 1982].
# [11] = AMT 2 mg/m^2 PO x 2 (n=75), MTX 25 mg/m^2 PO x 4 (n=41)
# [12] = AMT 2 mg/m^2 PO x 2 (n=81), MTX 25 mg/m^2 PO x 4 (n=42)
# [13] = AMT 2 mg/m^2 PO x 2 (n=104), MTX 25 mg/m^2 PO x 4 (n=63)
# [14] = AMT 2 mg/m^2 PO x 2, MTX 25 mg/m^2 PO x 4
# [15] = eAMT and eMTX (marrow exposure)
smiles,measurement,setting,value
Nc1nc(N)c2nc(CNc3ccc(C(=O)N[C@@H](CCC(=O)O)C(=O)O)cc3)cnc2n1 [AMT],"Event-free survival (EFS) at 24-months, Kaplan Meier","[1]; 25 high risk patients receiving aminopterin, standard risk patients receiving methotrexate",93%
same,"Coefficient of variation of toxicity, absolute neutrophil count in consolidation",[1]; [11],80%
same,Mean absolute neutrophil count in consolidation,[1]; [11],1667 cells/μL
same,"Coefficient of variation of toxicity, platelet counts in consolidation",[1]; [12],58%
same,Mean platelet counts in consolidation,[1]; [12],316 cells × 10^3/μL
same,"Coefficient of variation of toxicity, level of liver enzymes above normal",[1]; [13],25%
same,Mean level of liver enzymes above normal,[1]; [13],188 IU/L ALT
same,"Coefficient of variation of toxicity, level of liver enzymes above normal","[1]; AMT 2 mg/m^2 PO x 2 (n=104), MTX 25 mg/m^2 PO x 4 (n=63), listed as aminopterin",25%
same,"Coefficient of variation Relative To The Invention, absolute neutrophil count in consolidation",[1]; [14],1.0
same,"Coefficient of variation Relative To The Invention, level of liver enzymes above normal",[1]; [14],1.0
same,"Coefficient of variation Relative To The Invention, platelet counts in consolidation",[1]; [14],1.0
same,Patients with severe hepatotoxicity (liver enzyme elevations greater than five times normal),"[1]; AMT 4 mg/m^2/wk (n=104), MTX 100 mg/m^2/wk (n=63)",5.8%
same,Therapeutic Component: Antifolate dose,"[1]; AMT high risk ALL (n=20), MTX standard risk ALL (n=20), Table V",4 mg/m^2/wk:
same,Therapeutic Component: Antifolate dose with same efficacy as MTX at 100 mg/m^2/wk,"[1]; AMT high risk ALL (n=20), MTX standard risk ALL (n=20), Table VI",4 mg/m^2/wk
same,Therapeutic Index,[1]; Any elevation of liver enzymes,1
same,Toxicity Component: Antifolate dose with same toxicity as MTX at 100 mg/m^2/wk,[1]; Any elevation of liver enzymes,4 mg/m^2/wk
same,Therapeutic Index,[1]; Elevations in liver enzymes >5 times normal,1
same,Toxicity Component: Antifolate dose causing 5.8% of the population to have the toxicity,[1]; Elevations in liver enzymes >5 times normal (severe hepatotoxicity),4 mg/m^2/wk
same,Therapeutic Index,[1]; Hospital admissions,1
same,Toxicity Component: Antifolate dose with same toxicity as MTX at 100 mg/m^2/wk,[1]; Hospital admissions,4 mg/m^2/wk
same,Therapeutic Index,[1]; Mucositis,1
same,Toxicity Component: Antifolate dose with same toxicity as MTX at 100 mg/m^2/wk,[1]; Mucositis,4 mg/m^2/wk
same,Therapeutic Index,[1]; Myelosuppression,1
same,Toxicity Component: Antifolate dose with same toxicity as MTX at 100 mg/m^2/wk,[1]; Myelosuppression,4 mg/m^2/wk
same,Therapeutic Index,[1]; Neutropenia,1
same,Toxicity Component: Antifolate dose with same toxicity as MTX at 100 mg/m^2/wk,[1]; Neutropenia,4 mg/m^2/wk
same,Therapeutic Index,[1]; Thrombocytopenia,1
same,Toxicity Component: Antifolate dose with same toxicity as MTX at 100 mg/m^2/wk,[1]; Thrombocytopenia,4 mg/m^2/wk
same,Therapeutic Index,[1]; Treatment interruptions,1
same,Toxicity Component: Antifolate dose with same toxicity as MTX at 100 mg/m^2/wk,[1]; Treatment interruptions,4 mg/m^2/wk
same,Therapeutic Index,[1]; [15],1
same,Toxicity Component: Antifolate dose with same toxicity as MTX at 100 mg/m^2/wk,[1]; [15],4 mg/m^2/wk
same,Coefficient of variation of toxicity of aminopterin as percent of that of methotrexate,"[1]; elevated liver enzymes, 2 mg/m^2 aminopterin vs 25 mg/m^2 methotrexate",71%
same,Coefficient of variation of toxicity of aminopterin as percent of that of methotrexate,"[1]; erythrocyte antifolate levels, 2 mg/m^2 aminopterin vs 20 mg/m^2 methotrexate",12.4%
same,Survival rate of high risk patients vs standard risk patients treated with equipotent methotrexate,"[1]; follow-up period of up to 15 months, 20 patients per arm",equivalent survival rate
same,Therapeutic Component: Percentage effective (no evidence of a disease manifestation),[1],100% effective at
same,Therapeutic Component: Percentage effective (no evidence of a disease manifestation),[1]; listed as aminopterin,100%
same,potency relative to methotrexate,[2],at least 10 times
same,displacement of tritiated methotrexate and binding to DHFR,[3],equivalent
same,Mean intrapatient coefficient of variation of oral bioavailability,[4],25%
same,"antifolate content in brain parenchyma, aminopterin arm vs methotrexate arm","[5]; days 1, 12 and 22",significantly less antifolate
same,"antifolate content in liver, aminopterin vs methotrexate",[5]; days 1 and 22 after last dose,no different
same,Therapeutic Index,[6]; Mucositis vs peripheral blasts/bone marrow infiltrates,1
same,Toxicity Component: Antifolate dose with same toxicity as MTX at 100 mg/m^2/wk,[6]; Mucositis,4 mg/m^2/wk
same,Therapeutic Index,[6]; Myelosuppression,1
same,Toxicity Component: Antifolate dose with same toxicity as MTX at 100 mg/m^2/wk,[6]; Myelosuppression,4 mg/m^2/wk
same,Therapeutic Index,[6]; Neutropenia,1
same,Toxicity Component: Antifolate dose with same toxicity as MTX at 100 mg/m^2/wk,[6]; Neutropenia,4 mg/m^2/wk
same,Therapeutic Index,[6]; Thrombocytopenia,1
same,Toxicity Component: Antifolate dose with same toxicity as MTX at 100 mg/m^2/wk,[6]; Thrombocytopenia,4 mg/m^2/wk
same,Therapeutic Component: Antifolate dose,[6],4 mg/m^2/wk:
same,Therapeutic Component: Percentage effective (complete remission or stable disease),[6],43% complete
same,Therapeutic Component: Percentage effective (complete remission or stable disease),[6]; listed as aminopterin,43%
same,Therapeutic Component: Antifolate dose,[6]; listed as aminopterin,4 mg/m^2/wk
same,Therapeutic index of aminopterin relative to corresponding therapeutic index of methotrexate,[6]; peripheral blasts in T-lineage ALL and mucositis,greater than 50 fold
same,stability of aqueous compositions (conversion of aminopterin to folic acid),[7],accumulate folic acid to undesirable levels over the course of six months of storage
same,Interpatient oral bioavailability (%),[8],85%
same,Maximum (%) oral bioavailability,[8],163%
same,Minimum (%) oral bioavailability,[8],32%
same,potency relative to methotrexate,[9],about 25 times
same,Interpatient coefficient of variation of oral bioavailability,[10],42%
